≈ marks a conversion by molar mass, not a printed value.
Key:
Format in all cases: cell-based
in vitro = assay: in vitro
[1] = Cytotoxicity against 3T3 cells; settings: mouse
[2] = Cytotoxicity against HepG2 cells; settings: human
[3] = system: P. falciparum 3D7 (chloroquine-sensitive); assay: Anti-malarial activity, P. falciparum 3D7 culture, 72 hour, DNA content by flow cytometry; settings: Plasmodium falciparum, 3D7, 72 h, synchronized ring-stage parasites
Procedure: Numerous compounds were screened in cultures of the malaria parasite P. falciparum 3D7 (chloroquine-sensitive) and DD2 (chloroquine-resistant). The compounds were also screened for toxixcity against 3T3 cells, HepG2 cells, and in a hemolysis assay. In brief, P. falciparum parasites were cultured in RPMI 1640 (Invitrogen) supplemented with Albumax II (Invitrogen). For synchronization, schizont stage parasites were magnet purified using a SuperMACS™ II Cell Separation Unit (Miltenyi Biotech). For IC50 determinations, synchronized ring-stage parasites were plated at 0.5% parasitemia and 8% hematocrit in 96-well plates at a total volume of 50 μL. Serial dilutions of 2× concentration of the respective compound, ranging from 2.5 μM to 20 nM, were added to the wells to bring the total volume up to 100 μL and 4% hematocrit. Compounds were assayed for a 72 hour period, after which the cultures were fixed with a solution of 4% paraformaldehyde and 0.08% glutaraldhyde in PBS. The cells were then permeabilized with 0.25% Triton X-100, and SYTOX Green Nucleic Acid Stain (Invitrogen) in PBS was added to a final concentration of 5 μM. DNA content, as an indicator of parasitemia, was analyzed on an Accuri C6 Flow Cytometer with C-Sampler. IC50 curves were generated using GraphPad Prism (GraphPad Software).

[4] = 3T3 cells, read-out: Cytotoxicity 3T3 EC50
[5] = HepG2 cells, read-out: Cytotoxicity HepG2 EC50

Compound | EC50 (in vitro) | EC50 [1, 4] | EC50 [2, 5] | IC50 [3] | EC50 (in vitro; hemolysis assay, read-out: Cytotoxicity Hemolysis EC50) | EC50 [1] | EC50 [2]
N=C(N)NCCCc1cccc(-c2cncc(-c3cccc(CCCNC(=N)N)c3)c2)c1 [Compound 132] | > 1000 µg/mL | 323 µM | 456 µM | 0.112 µM | – | – | –
N=C(N)NCCc1cccc(-c2cncc(-c3cccc(CCNC(=N)N)c3)c2)c1 [Compound 134] | > 1000 µg/mL | 654 µM | 905 µM | 0.126 µM | – | – | –
N=C(N)NCCC#Cc1cncc(-c2cccc(-c3cncc(C#CCCNC(=N)N)c3)c2)c1 [Compound 137] | > 1000 µg/mL | 272 µM | 422 µM | 0.187 µM | – | – | –
N=C(N)NCCCCCC(=O)Nc1cccc(-c2cc(-c3ccc(NC(=O)CCCCNC(=N)N)cc3)nc(-c3ccccc3)n2)c1 [Compound 139] | – | 36 µM | 23 µM | 0.43 µM | – | – | –
N=C(N)NCCCOc1cc(OCCCNC(=N)N)c(-c2ccncc2)cc1-c1ccncc1 [Compound 140] | > 1000 µg/mL | > 1450 µM | > 1450 µM | 0.602 µM | – | – | –
NCCC#Cc1cncc(-c2cccc(-c3cncc(C#CCCN)c3)c2)c1 [Compound 142] | 538 µg/mL (≈ 1470 µM) | 229 µM | 594 µM | 0.795 µM | – | – | –
NCCCOc1cccc(-n2cc(-c3ccc4ccc(-c5cn(-c6cccc(OCCCN)c6)nn5)cc4c3)nn2)c1 [Compound 152] | 0.8 µg/mL (≈ 1.43 µM) | 406 µM | 502 µM | 0.0883 µM | – | – | –
N=C(N)N1CCN(c2ccc(-c3cc(-c4ccc(N5CCN(C(=N)N)CC5)cc4)ncn3)cc2)CC1 [Compound 153] | 116 µg/mL (≈ 239 µM) | 311 µM | 453 µM | 0.0771 µM | – | – | –
c1nc(-c2ccc(N3CCNCC3)cc2)cc(-c2ccc(N3CCNCC3)cc2)n1 [Compound 154] | 352 µg/mL (≈ 879 µM) | 210 µM | 471 µM | 0.473 µM | – | – | –
NCc1ccc(C(F)(F)F)c(Oc2ccc(S(=O)(=O)c3ccc(Oc4cc(CN)ccc4C(F)(F)F)cc3)cc2)c1 [Compound 156] | 9 µg/mL (≈ 15.1 µM) | 25 µM | 50 µM | 0.258 µM | – | – | –
N=C(N)NCCCCC(=O)Nc1cc(C(F)(F)F)cc(NC(=O)c2cc(C(=O)Nc3cc(C(F)(F)F)cc(NC(=O)CCCCNC(=N)N)c3SCCNC(=O)CN)ncn2)c1SCCNC(=O)CN [Compound 160] | 250 µg/mL (≈ 242 µM) | 66 µM | 224 µM | 0.925 µM | – | – | –
N=C(N)NCCCCC(=O)Nc1cccc(NC(=O)c2cc(C(=O)Nc3cccc(NC(=O)CCCCNC(=N)N)c3SCCN)ncn2)c1SCCN [Compound 161] | – | 697 µM | 676 µM | 0.939 µM | – | – | –
O=S(=O)(c1ccc(Oc2cc(NC3CCNCC3)cc(C(F)(F)F)c2)cc1)c1ccc(Oc2cc(NC3CCNCC3)cc(C(F)(F)F)c2)cc1 [Compound 163] | – | 60 µM | 98 µM | – | – | – | –
N=C(N)NCCc1ccc(C(F)(F)F)cc1NC(=O)c1cc(C(=O)Nc2cc(C(F)(F)F)ccc2CCNC(=N)N)ncn1 [Compound 176] | 314 µg/mL (≈ 503 µM) | 523 µM | 608 µM | 0.629 µM | – | – | –
NCCCOc1cccc(-n2cc(-c3cccc(-c4cn(-c5cccc(OCCCN)c5)nn4)c3)nn2)c1 [Compound 180] | 63 µg/mL (≈ 123 µM) | 40 µM | 78 µM | 0.641 µM | – | – | –
COc1cc(SCCN)c(C(F)(F)F)cc1NC(=O)c1cc(C(=O)Nc2cc(C(F)(F)F)c(SCCN)cc2OC)nc(SCCN)n1 [Compound 183] | 5 µg/mL (≈ 6.76 µM) | 694 µM | 739 µM | 0.383 µM | – | – | –
COc1cc(SCCNC(=N)N)c(C(F)(F)F)cc1NC(=O)c1cc(C(=O)Nc2cc(C(F)(F)F)c(SCCNC(=N)N)cc2OC)nc(SCCNC(=N)N)n1 [Compound 184] | 4 µg/mL (≈ 4.62 µM) | 478 µM | > 1000 µM | 0.129 µM | – | – | –
N#Cc1cccc(C(=O)Nc2cc(C(F)(F)F)cc(NC(=O)c3cc(C(=O)Nc4cc(C(F)(F)F)cc(NC(=O)c5cccc(C#N)c5)c4O[C@@H]4CCNC4)ncn3)c2O[C@@H]2CCNC2)c1 [Compound 186] | 107 µg/mL (≈ 117 µM) | 63 µM | > 1000 µM | 0.177 µM | – | – | –
NCCSc1ccc(NC(=O)c2cc(C(=O)Nc3ccc(SCCN)c(C(F)(F)F)c3)ncn2)cc1C(F)(F)F [Compound 188] | 4 µg/mL (≈ 6.62 µM) | 1 µM | 9 µM | 0.137 µM | – | – | –
NCCc1cccc(NC(=O)c2cccc(C(=O)Nc3cccc(CCN)c3)n2)c1 [Compound 191] | > 1000 µg/mL | > 1000 µM | > 1000 µM | 0.458 µM | – | – | –
NCCSc1ccc(NC(=O)c2cc(C(=O)Nc3ccc(SCCN)cc3)ncn2)cc1 [Compound 192] | 32 µg/mL (≈ 68.3 µM) | 953 µM | > 1000 µM | 0.182 µM | – | – | –

Compound | EC50 (in vitro) | EC50 [1, 4] | EC50 [2, 5] | IC50 [3] | EC50 (in vitro; hemolysis assay, read-out: Cytotoxicity Hemolysis EC50) | EC50 [1] | EC50 [2]
O=C(Nc1ccc(O[C@@H]2CCNC2)cc1)c1cccc(C(=O)Nc2ccc(O[C@@H]3CCNC3)cc2)n1 [Compound 193] | > 1000 µg/mL | > 1000 µM | > 1000 µM | 0.045 µM | – | – | –
O=C(Nc1ccc(O[C@@H]2CCNC2)cc1)c1cncc(C(=O)Nc2ccc(O[C@@H]3CCNC3)cc2)c1 [Compound 194] | > 1000 µg/mL | > 1000 µM | > 1000 µM | 0.187 µM | – | – | –
O=C(Nc1ccc(O[C@@H]2CCNC2)cc1)c1ccnc(C(=O)Nc2ccc(O[C@@H]3CCNC3)cc2)c1 [Compound 195] | > 1000 µg/mL | > 1000 µM | > 1000 µM | 0.045 µM | – | – | –
O=C(Nc1ccc(OC2CNC2)cc1)c1cc(C(=O)Nc2ccc(OC3CNC3)cc2)ncn1 [Compound 196] | 164 µg/mL (≈ 356 µM) | > 1000 µM | 940 µM | 0.03 µM | – | – | –
O=C(Nc1ccc(O[C@@H]2CCNC2)cc1)c1cc(C(=O)Nc2ccc(O[C@@H]3CCNC3)cc2)ncn1 [Compound 197] | 187 µg/mL (≈ 383 µM) | 405 µM | 881 µM | 0.014 µM | – | – | –
NC1CCC(Oc2ccc(NC(=O)c3cc(C(=O)Nc4ccc(OC5CCC(N)CC5)cc4)ncn3)cc2)CC1 (stereo not drawn) [Compound 200] | 24 µg/mL (≈ 44.1 µM) | 27 µM | 37 µM | 0.004 µM | – | – | –
O=C(Nc1ccc(N2CCNCC2)cc1)c1cc(C(=O)Nc2ccc(N3CCNCC3)cc2)ncn1 [Compound 201] | 48 µg/mL (≈ 98.6 µM) | 137 µM | 234 µM | < 0.001 µM | – | – | –
CN1CCN(c2ccc(NC(=O)c3cc(C(=O)Nc4ccc(N5CCN(C)CC5)cc4)ncn3)cc2)CC1 [Compound 212] | – | > 1000 µM | > 1000 µM | > 0.1 µM | – | – | –
N=C(N)N1CC=C(c2ccc(NC(=O)c3cc(C(=O)Nc4ccc(C5=CCN(C(=N)N)CC5)cc4)ncn3)cc2)CC1 [Compound 219] | – | 919 µM | > 1000 µM | – | – | – | –
CN1CCN(c2ccc(-c3cc(-c4ccc(N5CCN(C)CC5)cc4)ncn3)cc2)CC1 [Compound 278] | – | > 1000 µM | > 1000 µM | > 0.1 µM | – | – | –
NCCCn1c2ccc(C3=CCNCC3)cc2c2cc(C3=CCNCC3)ccc21 [Compound 288] | – | – | – | – | > 1000 µg/mL | > 1000 µM | > 1000 µM
N=C(N)NCCCn1c2ccc(C3=CCNCC3)cc2c2cc(C3=CCNCC3)ccc21 [Compound 290] | – | – | – | > 0.1 µM | – | > 1000 µM | > 1000 µM
N=C(N)N1CCN(c2ccc3sc4ccc(N5CCN(C(=N)N)CC5)cc4c3c2)CC1 [Compound 292] | – | 710 µM | > 1000 µM | 0.088 µM | – | – | –
CCn1c2ccc(N3CCN(C(=N)N)CC3)cc2c2cc(N3CCN(C(=N)N)CC3)ccc21 [Compound 294] | – | > 1000 µM | > 1000 µM | > 0.1 µM | – | – | –
COc1cc(OC)c(C(=O)Nc2cc(C(F)(F)F)cc(NC(=O)c3cccc(C#N)c3)c2SCCN)cc1C(=O)Nc1cc(C(F)(F)F)cc(NC(=O)c2cccc(C#N)c2)c1SCCN [Compound 300] | – | 848 µM | 848 µM | – | – | – | –
COc1cccc(C(=O)Nc2cc(C(F)(F)F)cc(NC(=O)c3cc(C(=O)Nc4cc(C(F)(F)F)cc(NC(=O)c5cccc(OC)c5)c4SCCN)ncn3)c2SCCN)c1 [Compound 309] | – | > 1000 µM | > 1000 µM | 0.079 µM | – | – | –
COc1ccc(C(=O)Nc2cc(C(F)(F)F)cc(NC(=O)c3cc(C(=O)Nc4cc(C(F)(F)F)cc(NC(=O)c5ccc(OC)c(OC)c5)c4SCCN)ncn3)c2SCCN)cc1OC [Compound 312] | 6 µg/mL (≈ 6.23 µM) | > 10000 µM | > 1000 µM | – | – | – | –
COc1ccc(C(=O)Nc2cc(C(F)(F)F)cc(NC(=O)c3cc(C(=O)Nc4cc(C(F)(F)F)cc(N)c4SCCN)ncn3)c2SCCN)cc1OC [Compound 313] | 14 µg/mL (≈ 17.5 µM) | 92 µM | 545 µM | – | – | – | –
NCCSc1c(NC(=O)c2cc(C(=O)Nc3cc(C(F)(F)F)cc(NC(=O)c4ccc(Cl)cc4Cl)c3SCCN)ncn2)cc(C(F)(F)F)cc1NC(=O)c1ccc(Cl)cc1Cl [Compound 314] | – | > 1000 µM | 827 µM | – | – | – | –
NCCSc1c(N)cc(C(F)(F)F)cc1NC(=O)c1cc(C(=O)Nc2cc(C(F)(F)F)cc(NC(=O)c3cccnc3)c2SCCN)ncn1 [Compound 316] | 22 µg/mL (≈ 29.7 µM) | 33 µM | 41 µM | – | – | – | –
